Where a name gives a salt, the structure may show the parent alone. Read-outs that look alike come from different tables or passages of the source.
Tests used:
Format in all cases: cell-based
[1] = system: A. baumannii clinical isolate (strain 7); assay: MIC by broth microdilution (alone and in combination with meropenam), strain 7; conditions: for MIC: Acinetobacter baumannii, compound alone
Experimental: (§1) Compounds of the present invention alone, meropenam (MER) alone, and as a combination with test antibiotic (meropenam) were tested for antimicrobial activity by determing minimum inhibitory concentration (MIC, mg/L) using the broth microdilution method according to the guidelines of the Clinical Laboratories and Stansards Insitute (“Methods for Dilution Antimicrobial Suscetibility Tests for Bacterial that Grow Aerobiclly”, Approved standard, […]., Clinical and Laboratories Stanards Institute (CLSI) Document M7-A8, Wayne, Pa., USA, 2009). Meropenam as a test antibiotic compound was dissolved in DMSO. Meropenam was then diluted in microbial growth medium (Mueller-Hinton Broth II, cation adjusted) resulting in a final concention range of 0.125-64 mg/L in serial two-fold dilution. In all cases the filnal DMSO concentraion was less than 0.5%. Bacteria were added to 96-well microtitre plates containing the serial two-fold dilutions of the compoumds; the final cell density was appoximately 5x10^5 colony forming units/mL (CFU/mL). Plates were incubated at 37° C. for 18-24 hours and read visually. The MIC, i.e. the lowest concentration of the test compound that inhibited visible growth of the bacteria, was recorded. The same assay conditions were used when the compounds of present invention alone, and as a combination with test meropenam antibiotic compound was tested for minmum inhibitory concentration (MIC, mg/L). Whileest meropenam was serially diluted as descrribed above, a constant concentration of the present invention of 4 µg/mL was used.
(§2) Bacterial strains that were used to evaluate the antimicrobial activity using the MIC determination included but were not limited to E. coli clinical isolate (strain 1), E. coli 8739 (strain 2), K. pneumoniae clinical isolate (strain 3), K. pneumoniae 700603 (strain 4), E. cloacae clinical isolate (strain 5), E. cloacae 700323 (strain 6), A. baumannii clinical isolate (strain 7), A. baumannii 19606 (strain 8), P. aeruginosa clinical isolate (strain 9), P. aeruginosa 9027 (strain 10).

[2] = system: E. cloacae 700323 (strain 6); assay: MIC by broth microdilution (alone and in combination with meropenam), strain 6; conditions: for MIC: Enterobacter cloacae, compound alone
Experimental: as §1, §2

[3] = system: K. pneumoniae 700603 (strain 4); assay: MIC by broth microdilution (alone and in combination with meropenam), strain 4; conditions: for MIC: Klebsiella pneumoniae, compound alone
Experimental: as §1, §2

[4] = system: E. coli 8739 (strain 2); assay: MIC by broth microdilution (alone and in combination with meropenam), strain 2; conditions: for MIC: Escherichia coli, compound alone
Experimental: as §1, §2

[5] = system: K. pneumoniae clinical isolate (strain 3); assay: MIC by broth microdilution (alone and in combination with meropenam), strain 3; conditions: for MIC: Klebsiella pneumoniae, compound alone
Experimental: as §1, §2

[6] = system: E. cloacae clinical isolate (strain 5); assay: MIC by broth microdilution (alone and in combination with meropenam), strain 5; conditions: for MIC: Enterobacter cloacae, compound alone
Experimental: as §1, §2

[7] = system: A. baumannii 19606 (strain 8); assay: MIC by broth microdilution (alone and in combination with meropenam), strain 8; conditions: for MIC: Acinetobacter baumannii, compound alone
Experimental: as §1, §2

[8] = system: E. coli clinical isolate (strain 1); assay: MIC by broth microdilution (alone and in combination with meropenam), strain 1; conditions: for MIC: Escherichia coli, compound alone
Experimental: as §1, §2

[9] = system: P. aeruginosa clinical isolate (strain 9); assay: MIC by broth microdilution (alone and in combination with meropenam), strain 9; conditions: for MIC: Pseudomonas aeruginosa, compound alone
Experimental: as §1, §2

[10] = system: P. aeruginosa 9027 (strain 10); assay: MIC by broth microdilution (alone and in combination with meropenam), strain 10; conditions: for MIC: Pseudomonas aeruginosa, compound alone
Experimental: as §1, §2

[11] = read-out: MIC, antibacterial activity of example alone

Row | SMILES | MIC [1, 11] [µg/mL] | MIC [2, 11] [µg/mL] | MIC [3, 11] [µg/mL] | MIC [4, 11] [µg/mL] | MIC [5, 11] [µg/mL] | MIC [6, 11] [µg/mL] | MIC [7, 11] [µg/mL] | MIC [8, 11] [µg/mL] | MIC [9, 11] [µg/mL] | MIC [10, 11] [µg/mL] | also measured
1 | C[C@@H](O)[C@H]1C(=O)N2C(C(=O)O)=C(S[C@@H]3CN[C@H](C(=O)N(C)C)C3)[C@H](C)[C@H]12 [MER, meropenam, reference compound] |  |  |  |  |  |  |  |  |  |  | MIC, MER Alone ([1]; meropenam alone): 2.0 µg/mL; MIC, MER Alone ([2]; meropenam alone): 2.0 µg/mL; MIC, MER Alone ([3]; meropenam alone): 1.0 µg/mL; MIC, MER Alone ([4]; meropenam alone): 2.0 µg/mL; MIC, MER Alone ([5]; meropenam alone): 2.0 µg/mL; MIC, MER Alone ([6]; meropenam alone): 2.0 µg/mL; MIC, MER Alone ([7]; meropenam alone): 1.0 µg/mL; MIC, MER Alone ([8]; meropenam alone): 2.0 µg/mL; MIC, MER Alone ([9]; meropenam alone): 2.0 µg/mL; MIC, MER Alone ([10]; meropenam alone): 2.0 µg/mL
2 | N#Cc1ccc(C(=O)NC(=N)[C@@H]2CC[C@@H]3CN2C(=O)N3OS(=O)(=O)[O-])cc1.[Na+] [Ex.45, Sodium (2S,5R)-2-(N-(4-cyanobenzoyl)carbamimidoyl)-7-oxo-1,6-diazabicyclo[3.2.1]octan-6-yl Sulfate] |  |  |  |  |  |  |  |  |  |  | MIC ([1]; read-out: MIC): > 64 µg/mL; MIC ([2]; read-out: MIC): > 64 µg/mL; MIC ([3]; read-out: MIC): > 64 µg/mL; MIC ([4]; read-out: MIC): > 64 µg/mL; MIC ([5]; read-out: MIC): > 64 µg/mL; MIC ([6]; read-out: MIC): > 64 µg/mL; MIC ([7]; read-out: MIC): > 64 µg/mL; MIC ([8]; read-out: MIC): > 64 µg/mL; MIC ([9]; read-out: MIC): > 64 µg/mL; MIC ([10]; read-out: MIC): > 64 µg/mL
3 | CC(=O)N1CC[C@H](C(=O)NC(=N)[C@@H]2CC[C@@H]3CN2C(=O)N3OS(=O)(=O)[O-])C1.[Na+] [Ex.30, Sodium (2S,5R)-2-(N-((S)-1-acetylpyrrolidine-3-carbonyl)carbamimidoyl)-7-oxo-1,6-diazabicyclo[3.2.1]octan-6-yl Sulfate] | > 64 | > 64 | > 64 | > 64 | > 64 | > 64 | > 64 | > 64 | > 64 | > 64 | 
4 | CC(=O)NCCC(=O)NC(=N)[C@@H]1CC[C@@H]2CN1C(=O)N2OS(=O)(=O)[O-].[Na+] [Ex.19, Sodium (2S,5R)-2-(N-(3-acetamidopropanoyl)carbamimidoyl)-7-oxo-1,6-diazabicyclo[3.2.1]octan-6-yl Sulfate] | > 64 | > 64 | > 64 | > 64 | > 64 | > 64 | > 64 | > 64 | > 64 | > 64 | 
5 | CC(=O)N1CC[C@@H](C(=O)NC(=N)[C@@H]2CC[C@@H]3CN2C(=O)N3OS(=O)(=O)O)C1 [Ex.31, Sodium (2S,5R)-2-(N-((R)-1-acetylpyrrolidine-3-carbonyl)carbamimidoyl)-7-oxo-1,6-diazabicyclo[3.2.1]octan-6-yl Sulfate] | > 64 | > 64 | > 64 | > 64 | > 64 | > 64 | > 64 | > 64 | > 64 | > 64 | 
6 | N=C(NC(=O)c1ccc(C(F)(F)F)cn1)[C@@H]1CC[C@@H]2CN1C(=O)N2OS(=O)(=O)[O-].[Na+] [Ex.50, Sodium (2S,5R)-7-oxo-2-(N-(5-(trifluoromethyl)picolinoyl)carbamimidoyl)-1,6-diazabicyclo[3.2.1]octan-6-yl Sulfate] |  |  |  |  |  |  |  |  |  |  | MIC ([1]; read-out: MIC): > 64 µg/mL; MIC ([2]; read-out: MIC): > 64 µg/mL; MIC ([3]; read-out: MIC): > 64 µg/mL; MIC ([4]; read-out: MIC): > 64 µg/mL; MIC ([5]; read-out: MIC): > 64 µg/mL; MIC ([6]; read-out: MIC): > 64 µg/mL; MIC ([7]; read-out: MIC): > 64 µg/mL; MIC ([8]; read-out: MIC): > 64 µg/mL; MIC ([9]; read-out: MIC): > 64 µg/mL; MIC ([10]; read-out: MIC): > 64 µg/mL
7 | N=C(NC(=O)Cn1ccnc1)[C@@H]1CC[C@@H]2CN1C(=O)N2OS(=O)(=O)[O-].[Na+] [Ex.39, Sodium (2S,5R)-2-(N-(2-(1H-imidazol-1-yl)acetyl)carbamimidoyl)-7-oxo-1,6-diazabicyclo[3.2.1]octan-6-yl Sulfate] | > 64 | > 64 | > 64 | > 64 | > 64 | > 64 | > 64 | > 64 | > 64 | > 64 | 
8 | N=C(NC(=O)C1CCNCC1)[C@@H]1CC[C@@H]2CN1C(=O)N2OS(=O)(=O)[O-].[Na+] [Ex.18, Sodium (2S,5R)-7-oxo-2-(N-(piperidine-4-carbonyl)carbamimidoyl)-1,6-diazabicyclo[3.2.1]octan-6-yl Sulfate] | > 64 | > 64 | > 64 | > 64 | > 64 | > 64 | > 64 | > 64 | > 64 | > 64 | 

— patent US20230365561A1, “BETA-LACTAMASE INHIBITORS AND THEIR PREPARATION” (NINGXIA ACADEMY OF AGRICUL TURE AND FORESTRY SCIENCES, priority 2020, published 2023)
